Assay results from ChEMBL document CHEMBL1909046, “DrugMatrix in vitro pharmacology data”.

Tests used:
[1] = molecular target: Protein phosphatase 3 catalytic subunit alpha (Homo sapiens, UniProt Q08209); design: species or system Escherichia coli;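 further: inhibition of calcineurin (PP2B) enzyme activity, measured with DiFMUP as the substrate; in other assays of this panel Not Active means under 50% inhibition at 10 µM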
[2] = molecular target: Prostaglandin G/H synthase 1 (Homo sapiens, UniProt P23219); assay: biochemical; type: tissue-based, Platelet; settings: platelet;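 further: inhibition of COX-1 enzyme activity, with arachidonic acid supplied as substrate; in other assays of this panel Not Active means under 50% inhibition at 10 µM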
Caspase-1 = molecular target: T1, Caspase-1 (Homo sapiens, UniProt P29466); design: species or system Escherichia coli;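 further: Caspase-1 enzyme inhibition assay with a peptide substrate; in other assays of this panel Not Active means under 50% inhibition at 10 µM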
T1 sequence (P29466 whole entry): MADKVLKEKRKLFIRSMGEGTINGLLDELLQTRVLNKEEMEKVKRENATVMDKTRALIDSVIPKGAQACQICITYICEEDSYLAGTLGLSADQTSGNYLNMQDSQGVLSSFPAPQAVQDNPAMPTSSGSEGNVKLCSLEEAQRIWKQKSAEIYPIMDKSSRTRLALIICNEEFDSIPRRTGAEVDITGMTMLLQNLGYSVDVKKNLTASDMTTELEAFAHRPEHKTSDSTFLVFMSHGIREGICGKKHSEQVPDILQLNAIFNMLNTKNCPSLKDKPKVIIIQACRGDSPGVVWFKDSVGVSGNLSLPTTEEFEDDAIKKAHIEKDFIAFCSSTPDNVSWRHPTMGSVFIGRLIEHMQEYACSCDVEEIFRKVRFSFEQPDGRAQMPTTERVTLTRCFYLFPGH

D(4) dopamine receptor = molecular target: T2, D(4) dopamine receptor (Homo sapiens, UniProt P21917); assay: DRUGMATRIX: Dopamine D4.2 radioligand binding (ligand: [3H] Spiperone); type: cell membranes, CHO-K1, Membrane; settings: cho-k1; Not Active = under 50% inhibition at 10 µM
T2 sequence (P21917 whole entry): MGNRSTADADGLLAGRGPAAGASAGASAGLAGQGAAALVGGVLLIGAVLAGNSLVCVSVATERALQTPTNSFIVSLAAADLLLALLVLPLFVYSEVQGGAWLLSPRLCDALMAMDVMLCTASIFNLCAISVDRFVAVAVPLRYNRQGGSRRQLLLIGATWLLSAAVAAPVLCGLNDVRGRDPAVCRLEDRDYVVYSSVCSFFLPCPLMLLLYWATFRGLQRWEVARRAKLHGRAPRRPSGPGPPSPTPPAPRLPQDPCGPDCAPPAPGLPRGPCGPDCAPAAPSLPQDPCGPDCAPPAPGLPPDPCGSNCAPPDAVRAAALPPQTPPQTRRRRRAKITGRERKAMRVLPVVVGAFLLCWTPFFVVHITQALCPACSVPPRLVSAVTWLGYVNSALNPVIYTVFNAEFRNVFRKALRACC

[3] = DRUGMATRIX: Phosphodiesterase PDE4 enzyme inhibition (substrate: [3H]cAMP + cAMP); settings: u-937; Not Active = under 50% inhibition at 10 µM
[4] = molecular target: Protein kinase C alpha type (Homo sapiens, UniProt P17252); type: cell-based; settings: sf9;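 further: inhibition of PKCalpha kinase activity measured in an enzyme assay with histone as the phosphorylation substrate; in other assays of this panel Not Active means under 50% inhibition at 10 µM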
Vasopressin V1a receptor = Vasopressin V1a receptor (Homo sapiens, UniProt P37288); type: cell membranes, Membrane; settings: hek293; further: in other assays of this panel Not Active means under 50% inhibition at 10 µM
[5] = molecular target: Receptor tyrosine-protein kinase erbB-2 (Homo sapiens, UniProt P04626); assay: biochemical; type: cell-based, Insect cells; settings: insect cells

Chain of Vasopressin V1a receptor (P37288 whole entry): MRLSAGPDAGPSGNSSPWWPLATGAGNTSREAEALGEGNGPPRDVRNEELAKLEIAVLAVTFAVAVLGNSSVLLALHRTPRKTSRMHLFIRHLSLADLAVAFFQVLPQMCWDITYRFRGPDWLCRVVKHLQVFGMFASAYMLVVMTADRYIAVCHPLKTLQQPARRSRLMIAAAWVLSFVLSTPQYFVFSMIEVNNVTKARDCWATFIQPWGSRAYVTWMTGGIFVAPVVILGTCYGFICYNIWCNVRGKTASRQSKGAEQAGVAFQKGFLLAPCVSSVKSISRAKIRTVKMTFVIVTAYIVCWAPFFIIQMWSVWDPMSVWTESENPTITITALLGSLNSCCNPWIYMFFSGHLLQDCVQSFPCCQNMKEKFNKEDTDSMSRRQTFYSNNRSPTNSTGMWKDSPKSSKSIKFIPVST
Chain of Prostaglandin G/H synthase 1 (P23219 whole entry): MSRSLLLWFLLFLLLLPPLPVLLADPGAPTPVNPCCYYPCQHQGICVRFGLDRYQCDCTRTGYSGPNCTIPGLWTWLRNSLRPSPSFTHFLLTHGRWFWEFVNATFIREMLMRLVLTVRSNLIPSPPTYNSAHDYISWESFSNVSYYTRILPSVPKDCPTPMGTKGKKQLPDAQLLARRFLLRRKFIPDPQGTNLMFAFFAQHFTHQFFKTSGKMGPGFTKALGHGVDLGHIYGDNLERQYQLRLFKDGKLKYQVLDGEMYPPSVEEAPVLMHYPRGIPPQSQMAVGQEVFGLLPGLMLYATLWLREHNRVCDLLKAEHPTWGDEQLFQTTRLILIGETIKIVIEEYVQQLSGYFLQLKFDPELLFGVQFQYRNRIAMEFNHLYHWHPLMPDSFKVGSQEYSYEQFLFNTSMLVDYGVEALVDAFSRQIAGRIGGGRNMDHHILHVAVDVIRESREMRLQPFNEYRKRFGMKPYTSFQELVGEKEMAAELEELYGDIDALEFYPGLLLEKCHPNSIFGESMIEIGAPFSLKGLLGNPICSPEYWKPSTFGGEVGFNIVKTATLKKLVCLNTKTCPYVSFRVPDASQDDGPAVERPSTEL

| Molecule | IC50 [1] | IC50 [2] | IC50 (Caspase-1) | IC50 (D(4) dopamine receptor) | IC50 [3] | Ki [3] | IC50 [4] | IC50 (Vasopressin V1a receptor) | IC50 [5] | Ki [1] | Ki [2] | Ki (Caspase-1) | Ki (D(4) dopamine receptor) | Ki [4] | Ki (Vasopressin V1a receptor) | IC50 ([5]; read-out: IC50) [µM] | Ki [5] |
| --- | --- | --- | --- | --- | --- | --- | --- | --- | --- | --- | --- | --- | --- | --- | --- | --- | --- |
| CC(C)(Sc1cc(C(C)(C)C)c(O)c(C(C)(C)C)c1)Sc1cc(C(C)(C)C)c(O)c(C(C)(C)C)c1 [PROBUCOL] | Not Active | Not Active | Not Active | Not Active | Not Active | Not Active | Not Active | Not Active | Not Active |  |  |  |  |  |  |  |  |
| COBALT(II) ACETYLACETONATE | Not Active | Not Active | Not Active | Not Active | Not Active | Not Active | Not Active | Not Active |  | Not Active | Not Active | Not Active | Not Active | Not Active | Not Active | 3.17 |  |
| INSULIN HUMAN | Not Active | Not Active | Not Active | Not Active | Not Active | Not Active | Not Active | Not Active | Not Active | Not Active | Not Active | Not Active | Not Active | Not Active | Not Active |  | Not Active |
| POLYVINYL ALCOHOL | Not Active | Not Active | Not Active | Not Active | Not Active | Not Active | Not Active | Not Active | Not Active | Not Active | Not Active | Not Active | Not Active | Not Active | Not Active |  | Not Active |
